# Measured values published in patent US8802384B2, “Method or system using biomarkers for the monitoring of a treatment” (priority 2009, dated 2014).
# Columns and labels:
# HUVEC cells = HUVEC cells experiment: phospho-tyrosine level after VEGF, flow cytometry; assay type: cell-based, Human; conditions: exposure 3 h, 20 ng/ml VEGF 5 min; A1 and AG1478 1 and 5 μM, 5FU 1 and 5 mM; FIG. 1
# Protocol: FIG. 1: Effect of different compounds on the phospho-tyrosine level of HUVEC cells treated with VEGF. On the abscissa: 1 is the IgG control, untreated with VEGF and unexposed to an active ingredient; 2 is the control untreated with VEGF and unexposed to an active ingredient; 3 is the control treated with VEGF but unexposed to an active ingredient; 4 is treated with VEGF and exposed to 1 μM of compound A1; 5 is treated with VEGF and exposed to 5 μM of compound A1; 6 is treated with VEGF and exposed to 1 μM of compound AG1478; 7 is treated with VEGF and exposed to 5 μM of compound AG 1478; 8 is treated with VEGF and exposed to 1 mM of compound 5FU; 9 is treated with VEGF and exposed to 5 mM of compound 5FU. HUVEC cells were exposed to compound A1 (1 μM and 5 μM), to the EGFR inhibitor AG1478 (1 μM and 5 μM) and to 5FU (5-fluorouracile, 1 mM and 5 mM) for 3 h and 20 ng/ml of VEGF were added for 5 min before cell collection. Collected cells were washed twice by PBS and centrifugation (300 g, 5 min) in 50 μL of staining buffer. After removal of the supernatant by aspiration, cell pellets were lysed in 250 μL of fixation/permeabilization solution and kept for 20 min on ice. The PY-100 Alexa 488 antibody and phosphatase inhibitor were added. […] The data was obtained from Cell Quest software (BD) and analyzed by WinMDI 2.9 (free software).
# [1] = tested on: VEGFR2^+pY^+ cells in murine peripheral blood; experiment: murine blood samples in vivo study (HepG2-inoculated mice), flow cytometry; conditions: 50 or 100 mg/kg p.o. for 14 days
# Protocol: Mice, inoculated HepG2 cells, were randomized for three groups by tumor size and treated with vehicle (control), compound A1 (50 mg/kg, p.o.) or compound A1 (100 mg/kg, p.o.) for 14 days. Mice were sacrificed and whole murine blood samples were collected by aspiration from abdominal aorta or heart. The blood was hemolyzed by an hemolytic agent at room temperature for 10 min. After centrifugation (500 g, 5 min), the cells were washed by 1 mL of staining buffer. The cells were then incubated with 100 μL of staining buffer and 5 μL of VEGFR2-PE antibody for 15 min in the dark. Then, the cells were washed and incubated in 500 μL of Fixation/Permeabilization solution for 20 min and washed by Perm/Wash buffer twice. Then, a mixture of antibodies (PY-100, CD45-PerCP-Cy5.5, 5 μL of each) and phosphatase inhibitor were added and incubated for 30 min in the dark. The cells were washed and analyzed by flow cytometry (FACS Calibur, BD). The data was obtained from Cell Quest software (BD) and analyzed by WinMDI 2.9 (free software).
# [2] = tested on: CD34^+CD45^dim peripheral blood cells; experiment: Phase I clinical study: CD133/CD117 subpopulations of CD34^+CD45^dim peripheral blood cells, flow cytometry; assay type: in vivo, human
# Protocol: Whole blood was collected on pre-treatment (day 1), and on day 2, day 8 and day 29 after treatment. The subpopulation of CD34^+CD45^dim peripheral blood cells identified from whole blood was further identified by cell surface markers of CD133 and CD117 using flow cytometry. Whole blood (800 μL) was supplemented with 4.5 mL of 0.2% BSA-PBS and centrifuged for 5 min (1500 rpm). After the removal of the supernatant by aspiration, 4.5 mL of 0.2% BSA-PBS was added and centrifuged. The cell pellet was mixed with 50 μL of human gamma-globulin. Antibodies (CD34-FITC, CD117-PE, CD45-PerCP and CD133-APC) were added and kept for 45 min at 4 C. An hemolytic agent (4.5 mL) was added and incubated for 10 min. After centrifugation (1500 rpm, 5 min), the supernatant was washed twice. Then, 0.2% BSA-PBS (4.5 mL) was added, and the supernatant was removed by centrifugation (1500 rpm, 5 min). The cell pellet was filled up to 800 μL with BSA-PBS and analyzed by flow cytometry. The percentage (quadrants) of CD34^+CD45^dimCD133+/−CD117+/− cells were analyzed.
# [3] = responders, not significant, FIG. 5A
compound,measurement,setting,value
"CCS(=O)(=O)O.COC(=O)c1ccc2c(c1)NC(=O)/C2=C(\Nc1ccc(N(C)C(=O)CN2CCN(C)CC2)cc1)c1ccccc1 [compound A1, 3-Z-[1-(4-(N-((4-methyl-piperazin-1-yl)-methylcarbonyl)-N-methyl-amino)-anilino)-1-phenyl-methylene]-6-methoxycarbonyl-2-indolinone-monoethanesulphonate]",phospho-tyrosine levels of HUVEC cells,HUVEC cells,suppressed
same,number of VEGFR2^+CD45^dimpY^+ cells,[1]; FIG. 2,seems to decrease
same,VEGFR2^+pY^+ cells in murine peripheral blood,[1]; FIG. 3,suppressed
same,CD34^+CD45^dimCD133^+CD117^+ cells in responders (stable disease) compared to non-responders,"[2]; after treatment, RES n=12, PD n=4, FIG. 5B",tended to decrease
same,percentage of CD34^+CD45^dimCD133^+CD117^+ cells,"[2]; patients with advanced solid tumors, day 29 compared with pre-treatment, p<0.001, FIG. 4A",significantly increased
same,percentage of CD34^+CD45^dimCD133^−CD117^+ cells,"[2]; patients with advanced solid tumors, day 29 compared with pre-treatment, p<0.01, FIG. 4A",decreased
same,CD34^+CD45^dimCD133^+ cells,"[2]; patients, day 29, FIG. 4B",significantly increased
same,CD34^+CD45^dimCD117^+ cells,"[2]; patients, day Band day 29, FIG. 4C",significantly decreased
same,CD34^+CD45^dimCD117^+ cells in responders (stable disease),[2]; [3],tended to decrease
same,CD34^+CD45^dimCD133^+ cells in responders (stable disease),[2]; [3],tended to decrease
